Assay results as given in the supplement of paper PMC10307832.

Columns and labels:
Test in all cases: relative viability (nuclei count vs DMSO), 5 days (fraction); higher = more cells survive
[1] = compound: CC(C)(C)c1cc(NC(=O)Nc2ccc(-c3cn4c(n3)sc3cc(OCCN5CCOCC5)ccc34)cc2)no1 [Quizartinib] + COc1cccc2cc(-c3nc([C@H]4CC[C@H](C(=O)O)CC4)n4ncnc(N)c34)[nH]c12 [OSI-027] (partner 0.5 µM)
Summary of the method: (§1)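 Five library-drug doses in √10 steps were combined with a fixed anchor-drug dose, or a single drug was given alone, by pin tool to lung cancer cell lines in 1536-well plates the day after seeding. Nuclei were stained and counted after 5 days. Relative viability is the nuclei count in treated wells over that in vehicle wells, taken as the median of duplicate plates.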

[2] = compound: CC(C)(C)c1cc(NC(=O)Nc2ccc(-c3cn4c(n3)sc3cc(OCCN5CCOCC5)ccc34)cc2)no1 [Quizartinib] + CS(=O)(=O)N1CCN(Cc2cc3nc(-c4cccc5[nH]ncc45)nc(N4CCOCC4)c3s2)CC1 [Pictilisib] (partner 1 µM)
Summary of the method: as §1

[3] = compound: CC(C)(C)c1cc(NC(=O)Nc2ccc(-c3cn4c(n3)sc3cc(OCCN5CCOCC5)ccc34)cc2)no1 [Quizartinib] + C[C@]1(O)C[C@@H](c2nc(-c3ccc4ccc(-c5ccccc5)nc4c3)c3c(N)nccn32)C1 [Linsitinib] (partner 1 µM)
Summary of the method: as §1

[4] = compound: CC(C)(C)c1cc(NC(=O)Nc2ccc(-c3cn4c(n3)sc3cc(OCCN5CCOCC5)ccc34)cc2)no1 [Quizartinib] + Cc1cc(Nc2cc(N3CCN(C)CC3)nc(Sc3ccc(NC(=O)C4CC4)cc3)n2)n[nH]1 [Tozasertib] (partner 0.1 µM)
Summary of the method: as §1

Row | Cell Line | relative viability ([1]; first compound 0.001 µM) | relative viability ([1]; first compound 0.003162 µM) | relative viability ([1]; first compound 0.01 µM) | relative viability ([1]; first compound 0.03162 µM) | relative viability ([1]; first compound 0.1 µM) | relative viability ([2]; first compound 0.001 µM) | relative viability ([2]; first compound 0.003162 µM) | relative viability ([2]; first compound 0.01 µM) | relative viability ([2]; first compound 0.03162 µM) | relative viability ([2]; first compound 0.1 µM) | relative viability ([3]; first compound 0.001 µM) | relative viability ([3]; first compound 0.003162 µM) | relative viability ([3]; first compound 0.01 µM) | relative viability ([3]; first compound 0.03162 µM) | relative viability ([3]; first compound 0.1 µM) | relative viability ([4]; first compound 0.001 µM) | relative viability ([4]; first compound 0.003162 µM) | relative viability ([4]; first compound 0.01 µM) | relative viability ([4]; first compound 0.03162 µM) | relative viability ([4]; first compound 0.1 µM)
1 | LXF-289 | 0.743 | 0.791 | 0.797 | 0.89 | 0.877 | 0.71 | 0.748 | 0.801 | 0.763 | 0.777 | 0.899 | 0.944 | 1.02 | 0.958 | 0.92 | 0.16 | 0.207 | 0.196 | 0.21 | 0.247
2 | NCI-H23 |  | 0.561 | 0.465 | 0.507 | 0.401 |  | 0.464 | 0.49 | 0.568 | 0.441 |  | 0.577 | 0.615 | 0.555 | 0.661 |  | 0.343 | 0.405 | 0.249 | 0.231
3 | NCI-H322M | 0.54 | 0.568 | 0.556 | 0.517 | 0.57 | 0.523 | 0.545 | 0.509 | 0.533 | 0.537 | 0.798 | 1.01 | 1.02 | 0.917 | 0.92 | 0.393 | 0.468 | 0.505 | 0.511 | 0.558
4 | NCI-H358 | 0.706 | 0.676 | 0.768 | 0.287 | 0.72 | 0.297 | 0.332 | 0.305 |  | 0.315 | 0.592 | 0.688 | 0.768 |  | 0.698 | 0.0852 | 0.0998 | 0.115 | 0.102 | 0.0995
5 | NCI-H441 | 0.424 | 0.669 | 0.564 |  | 0.693 | 0.38 | 0.508 | 0.508 | 0.379 | 0.606 | 0.357 | 0.645 | 0.607 | 0.51 | 0.479 | 0.66 | 0.599 | 0.586 |  | 0.489
6 | NCI-H460 | 0.585 | 0.593 | 0.692 | 0.341 | 0.533 | 0.439 | 0.436 | 0.382 | 0.352 | 0.384 | 0.583 | 0.572 | 0.782 |  | 0.708 | 0.4 | 0.401 | 0.394 | 0.142 | 0.0635
7 | NCI-H520 | 0.245 | 0.231 | 0.292 | 0.233 | 0.272 | 0.306 | 0.273 | 0.307 | 0.287 | 0.245 | 0.862 | 0.992 | 0.888 | 0.934 | 0.859 | 0.347 | 0.448 | 0.444 | 0.393 | 0.385
8 | NCI-H596 | 0.665 | 0.745 | 0.652 | 0.663 | 0.547 | 0.427 | 0.332 | 0.455 | 0.418 | 0.416 | 1.06 | 0.985 | 1.06 | 1.12 | 1.03 | 0.642 | 0.838 | 0.964 | 0.803 | 0.64
9 | NCI-H647 | 0.627 | 0.654 | 0.689 | 0.596 | 0.648 | 0.466 | 0.434 | 0.536 |  | 0.474 | 1.17 | 1.07 | 1.26 | 1.18 | 1.45 | 0.267 | 0.258 | 0.284 | 0.329 | 0.301
10 | NCI-H650 | 0.527 | 0.505 | 0.428 | 0.548 | 0.61 | 0.992 | 0.814 | 0.923 | 0.923 | 1.12 | 0.807 | 0.787 | 0.798 | 0.694 | 1.15 | 0.706 | 0.676 | 0.694 | 0.689 | 0.736
11 | NCI-H661 | 0.66 | 0.594 | 0.692 | 0.693 | 0.721 | 0.425 | 0.388 | 0.364 |  | 0.467 | 0.564 | 0.544 | 0.433 | 0.58 | 0.737 | 0.298 | 0.364 | 0.352 | 0.359 | 0.355
12 | NCI-H727 | 0.412 | 0.624 | 0.539 | 0.869 | 0.699 | 0.277 |  | 0.365 | 0.351 | 0.485 | 0.164 |  | 0.387 | 0.309 | 0.174 | 0.594 | 0.654 | 0.557 | 0.648 | 0.7
13 | NCI-H838 | 0.346 | 0.4 | 0.299 | 0.38 | 0.375 | 0.389 | 0.479 | 0.356 | 0.39 | 0.377 | 0.919 | 0.912 | 0.991 | 0.963 | 0.576 | 0.249 | 0.22 | 0.3 | 0.276 | 0.22
14 | NCI-H1355 | 0.361 | 0.449 | 0.389 | 0.377 | 0.4 | 0.352 | 0.418 | 0.41 | 0.426 | 0.5 | 0.804 | 0.817 | 0.827 | 0.799 | 0.842 | 0.495 | 0.542 | 0.51 | 0.442 | 0.433
15 | NCI-H1395 | 0.697 | 0.749 | 0.645 | 0.586 | 0.691 | 0.478 | 0.65 | 0.661 | 0.695 | 0.667 | 1.06 | 1.37 | 0.985 | 1.04 | 1.22 | 0.873 | 0.686 | 0.782 | 0.814 | 0.682
16 | NCI-H1437 | 0.789 | 0.868 | 0.853 | 0.956 | 0.747 | 0.475 | 0.37 | 0.425 | 0.327 | 0.314 | 0.954 | 0.897 | 1.01 | 0.898 | 0.706 | 0.372 | 0.399 | 0.422 | 0.367 | 0.329
17 | NCI-H1651 | 0.672 | 0.584 | 0.637 | 0.632 | 0.742 | 0.42 | 0.626 | 0.588 | 0.423 | 0.625 | 0.858 | 0.946 | 1.06 | 0.727 | 0.93 | 0.604 | 0.679 | 0.645 | 0.351 | 0.5
18 | NCI-H1666 | 0.755 | 0.883 | 0.856 | 0.764 | 0.857 | 0.458 | 0.325 | 0.415 | 0.399 | 0.264 | 0.771 | 0.753 | 0.868 | 0.631 | 0.865 | 0.56 | 0.594 | 0.612 | 0.462 | 0.557
19 | NCI-H1734 | 0.522 | 0.543 | 0.636 | 0.555 | 0.611 | 0.508 | 0.472 | 0.477 | 0.411 | 0.44 | 0.752 | 0.871 | 0.901 | 0.855 | 0.842 | 0.237 | 0.288 | 0.267 | 0.274 | 0.271
20 | NCI-H1755 | 0.591 | 0.645 | 0.79 | 0.793 | 0.701 | 0.39 | 0.439 | 0.416 | 0.401 | 0.436 | 0.611 | 0.997 | 0.963 | 1 | 0.99 | 0.583 | 0.536 | 0.569 | 0.626 | 0.48
21 | NCI-H1793 | 0.27 | 0.298 | 0.232 | 0.309 | 0.232 | 0.304 | 0.398 | 0.249 | 0.362 | 0.334 | 0.833 | 0.896 | 0.843 | 0.885 | 0.829 | 0.329 | 0.289 | 0.291 | 0.214 | 0.238
22 | NCI-H1915 | 0.602 | 0.642 | 0.562 | 0.683 | 0.606 | 0.838 | 0.875 | 0.698 | 1 | 1.05 | 0.761 | 1.03 | 1.11 | 1.08 | 1.15 | 0.419 | 0.427 | 0.42 | 0.401 | 0.389
23 | NCI-H1944 | 0.407 | 0.476 | 0.327 | 0.395 | 0.387 | 0.347 | 0.327 | 0.319 | 0.322 | 0.31 | 0.865 | 1.16 | 1.12 | 1.39 | 1.24 | 0.291 | 0.264 | 0.267 | 0.263 | 0.278
24 | NCI-H1975 | 0.682 | 0.624 | 0.722 | 0.673 | 0.572 | 0.288 | 0.282 | 0.283 | 0.284 | 0.281 | 0.964 | 0.85 | 0.956 | 1 | 1.17 | 0.71 | 0.809 | 0.488 | 0.372 | 0.16
25 | NCI-H1993 | 0.487 | 0.46 | 0.672 | 0.621 | 0.544 | 0.917 | 0.776 | 0.812 | 0.807 | 0.808 | 0.739 | 0.716 | 0.817 | 0.757 | 0.833 | 0.589 | 0.645 | 0.594 | 0.622 | 0.582
26 | NCI-H2009 | 0.546 | 0.614 | 0.62 | 0.664 | 0.724 | 0.475 | 0.799 | 0.833 | 0.604 | 0.737 | 0.917 | 1.13 | 1.24 | 1.01 | 1.18 | 0.692 | 0.695 | 0.628 | 0.653 | 0.506
27 | NCI-H2023 | 0.363 | 0.469 | 0.367 |  | 0.355 | 0.224 | 0.271 | 0.216 | 0.121 | 0.245 | 0.556 | 0.585 | 0.564 | 0.454 | 0.574 | 0.278 | 0.32 | 0.272 |  | 0.177
